Test results taken from the supplement of paper PMC10307832.

How the values were obtained:
Assay in all cases: relative viability (nuclei count vs DMSO), 5 days (fraction); higher = more cells survive
Tipifarnib + Tozasertib = compound: Cn1cncc1[C@@](N)(c1ccc(Cl)cc1)c1ccc2c(c1)c(-c1cccc(Cl)c1)cc(=O)n2C [Tipifarnib] + Cc1cc(Nc2cc(N3CCN(C)CC3)nc(Sc3ccc(NC(=O)C4CC4)cc3)n2)n[nH]1 [Tozasertib] (partner 0.1 µM)
How it was run: (§1)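 Five library-drug doses in √10 steps were combined with a fixed anchor-drug dose, or a single drug was given alone, by pin tool to lung cancer cell lines in 1536-well plates the day after seeding. Nuclei were stained and counted after 5 days. Relative viability is the nuclei count in treated wells over that in vehicle wells, taken as the median of duplicate plates.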

Tipifarnib + Foretinib = compound: Cn1cncc1[C@@](N)(c1ccc(Cl)cc1)c1ccc2c(c1)c(-c1cccc(Cl)c1)cc(=O)n2C [Tipifarnib] + COc1cc2c(Oc3ccc(NC(=O)C4(C(=O)Nc5ccc(F)cc5)CC4)cc3F)ccnc2cc1OCCCN1CCOCC1 [Foretinib] (partner 0.25 µM)
How it was run: as §1

Tipifarnib + AZD7762 = compound: Cn1cncc1[C@@](N)(c1ccc(Cl)cc1)c1ccc2c(c1)c(-c1cccc(Cl)c1)cc(=O)n2C [Tipifarnib] + NC(=O)Nc1cc(-c2cccc(F)c2)sc1C(=O)N[C@H]1CCCNC1 [AZD7762] (partner 0.2 µM)
How it was run: as §1

Tipifarnib + Luminespib = compound: Cn1cncc1[C@@](N)(c1ccc(Cl)cc1)c1ccc2c(c1)c(-c1cccc(Cl)c1)cc(=O)n2C [Tipifarnib] + CCNC(=O)c1noc(-c2cc(C(C)C)c(O)cc2O)c1-c1ccc(CN2CCOCC2)cc1 [Luminespib] (partner 0.01 µM)
How it was run: as §1

Cell Line | relative viability (Tipifarnib + Tozasertib; first compound 0.01 µM) | relative viability (Tipifarnib + Tozasertib; first compound 0.03162 µM) | relative viability (Tipifarnib + Tozasertib; first compound 0.1 µM) | relative viability (Tipifarnib + Tozasertib; first compound 0.3162 µM) | relative viability (Tipifarnib + Tozasertib; first compound 1 µM) | relative viability (Tipifarnib + Foretinib; first compound 0.01 µM) | relative viability (Tipifarnib + Foretinib; first compound 0.03162 µM) | relative viability (Tipifarnib + Foretinib; first compound 0.1 µM) | relative viability (Tipifarnib + Foretinib; first compound 0.3162 µM) | relative viability (Tipifarnib + Foretinib; first compound 1 µM) | relative viability (Tipifarnib + AZD7762; first compound 0.01 µM) | relative viability (Tipifarnib + AZD7762; first compound 0.03162 µM) | relative viability (Tipifarnib + AZD7762; first compound 0.1 µM) | relative viability (Tipifarnib + AZD7762; first compound 0.3162 µM) | relative viability (Tipifarnib + AZD7762; first compound 1 µM) | relative viability (Tipifarnib + Luminespib; first compound 0.01 µM) | relative viability (Tipifarnib + Luminespib; first compound 0.03162 µM) | relative viability (Tipifarnib + Luminespib; first compound 0.1 µM) | relative viability (Tipifarnib + Luminespib; first compound 0.3162 µM) | relative viability (Tipifarnib + Luminespib; first compound 1 µM)
LC-2-ad | 0.509 | 0.37 | 0.415 | 0.407 | 0.393 | 0.968 | 0.896 | 0.807 | 0.609 | 0.657 | 0.813 | 0.68 | 0.561 | 0.474 | 0.359 | 1.02 | 0.897 | 0.767 | 0.753 | 0.717
LCLC-97TM1 | 0.154 | 0.18 | 0.186 | 0.148 | 0.215 | 1.03 | 0.852 | 0.898 | 0.802 | 0.685 | 0.179 | 0.225 | 0.216 | 0.17 | 0.0822 | 0.799 | 0.751 | 0.662 | 0.52 | 0.574
LCLC-103H | 0.413 | 0.375 | 0.364 | 0.309 | 0.31 | 0.865 | 0.869 | 0.59 | 0.548 | 0.418 | 0.784 | 0.76 | 0.735 | 0.713 | 0.679 | 0.991 | 0.892 | 0.693 | 0.662 | 0.521
LK-2 | 0.158 | 0.173 | 0.189 | 0.157 | 0.162 | 1.15 | 1.02 | 1.03 | 0.578 | 0.726 | 0.769 | 0.357 | 0.256 | 0.17 | 0.104 | 0.191 | 0.172 | 0.207 | 0.172 | 0.175
LOU-NH91 | 0.61 | 0.524 | 0.329 | 0.464 | 0.441 | 0.943 | 1 | 0.83 | 0.695 | 0.693 | 0.715 | 0.685 | 0.636 | 0.625 | 0.503 | 0.321 | 0.336 | 0.323 | 0.322 | 0.323
LU99A | 0.261 | 0.249 | 0.223 | 0.232 | 0.223 | 0.757 | 0.651 | 0.653 | 0.497 | 0.395 | 0.277 | 0.272 | 0.255 | 0.182 | 0.224 | 0.343 | 0.22 | 0.241 | 0.207 | 0.233
LXF-289 | 0.224 | 0.192 | 0.21 | 0.142 | 0.152 | 0.998 | 0.966 | 0.858 | 0.825 | 0.824 | 1.08 | 1.12 | 1.08 | 0.941 | 0.347 | 0.651 | 0.68 | 0.701 | 0.554 | 0.444
NCI-H23 | 0.346 | 0.371 | 0.384 | 0.253 | 0.259 | 1.04 | 0.873 | 0.759 | 0.688 | 0.511 | 0.227 | 0.253 | 0.229 | 0.236 | 0.199 | 0.243 | 0.242 | 0.223 | 0.199 | 0.24
NCI-H322M | 0.55 | 0.492 | 0.511 | 0.417 | 0.46 | 0.964 | 1.15 | 0.849 | 0.876 | 0.783 | 0.561 | 0.591 | 0.553 | 0.474 | 0.442 | 0.854 | 0.85 | 0.676 | 0.665 | 0.554
NCI-H358 | 0.117 | 0.123 | 0.104 | 0.104 | 0.11 | 0.884 | 0.761 | 0.563 | 0.433 | 0.296 | 0.563 | 0.511 | 0.575 | 0.382 | 0.378 | 0.246 | 0.297 | 0.212 | 0.212 | 0.214
NCI-H441 | 0.671 | 0.554 | 0.528 | 0.356 | 0.439 | 0.955 | 0.699 | 0.73 | 0.72 | 0.594 | 1.21 | 0.904 | 0.938 | 0.723 | 0.598 | 0.39 | 0.355 | 0.242 | 0.315 | 0.267
NCI-H460 | 0.625 | 0.51 | 0.216 | 0.15 | 0.0888 | 1 | 0.872 | 0.624 | 0.581 | 0.207 | 0.575 | 0.618 | 0.282 | 0.237 | 0.118 | 0.0293 | 0.0319 | 0.0244 | 0.0236 | 0.0186
NCI-H596 | 1.05 | 0.687 | 0.713 | 0.722 | 0.589 | 1.05 | 0.857 | 0.619 | 0.569 | 0.53 | 1.1 | 1.09 | 1.08 | 0.822 | 0.776 | 1.08 | 0.796 | 0.849 | 0.828 | 0.63
NCI-H647 | 0.21 | 0.126 | 0.178 | 0.101 | 0.14 | 1.44 | 0.78 | 0.95 | 0.379 | 0.534 | 0.405 | 0.48 | 0.308 | 0.116 | 0.0944 | 0.239 | 0.155 | 0.102 | 0.0914 | 0.0951
NCI-H650 | 0.791 | 0.612 | 0.498 | 0.576 | 0.379 | 1.21 | 0.999 | 0.934 | 0.749 | 0.704 | 1.39 | 1.17 | 0.77 | 0.667 | 0.429 | 0.888 | 0.697 | 0.61 | 0.57 | 0.442
NCI-H727 | 0.809 | 0.598 | 0.624 | 0.608 | 0.444 | 1.04 | 0.875 | 0.795 | 0.976 | 0.944 | 0.613 | 0.608 | 0.519 | 0.504 | 0.571 | 0.341 | 0.401 | 0.533 | 0.462 | 0.432
